Measurements taken from ChEMBL document CHEMBL1201862, “PubChem BioAssay data set” (2004).
Each block holds one molecule with its values, some of them ahead of it. Calls of active or inactive are those of the source.

What was measured:
[1] = molecular target: Neurotensin receptor type 1 (Homo sapiens, UniProt P30989); assay type: functional;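 note: Image-based confirmatory dose-response assay measuring agonist activity at NTR1; NTR1-expressing U2OS osteosarcoma cells imaged for beta-arrestin GFP spot formation; agonist potency where compounds increase beta-arrestin recruitment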
[2] = molecular target: T1, Heat shock factor protein 1 (Mus musculus, UniProt P38532); assay: HSF1 potentiators in luciferase reporter cells, confirmation, cell-based, NIH3T3, luminescence, dose retest (AID 435004); assay type: functional;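 note: stress induced by proteasome inhibitor MG132 added 30 min after compound; luciferase reporter driven by HSF1 response element in NIH3T3 cells; actives raise luminescence as potentiators of the MG132 stress response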
T1 sequence (P38532 whole entry): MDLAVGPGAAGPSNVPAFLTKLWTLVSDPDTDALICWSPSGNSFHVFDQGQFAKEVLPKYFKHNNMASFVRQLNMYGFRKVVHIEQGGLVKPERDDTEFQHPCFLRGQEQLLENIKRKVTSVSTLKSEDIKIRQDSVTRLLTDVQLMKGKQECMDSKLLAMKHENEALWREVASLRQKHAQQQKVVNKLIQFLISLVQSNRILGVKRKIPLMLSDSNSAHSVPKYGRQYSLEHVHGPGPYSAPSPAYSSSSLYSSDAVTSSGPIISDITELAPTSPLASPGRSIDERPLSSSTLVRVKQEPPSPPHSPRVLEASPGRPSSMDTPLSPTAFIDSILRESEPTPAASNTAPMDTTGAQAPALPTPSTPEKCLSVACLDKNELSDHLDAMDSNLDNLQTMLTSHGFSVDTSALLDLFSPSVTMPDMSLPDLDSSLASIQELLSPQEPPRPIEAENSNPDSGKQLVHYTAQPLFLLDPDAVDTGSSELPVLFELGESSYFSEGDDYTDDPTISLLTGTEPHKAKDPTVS

[3] = molecular target: Potassium voltage-gated channel subfamily KQT member 2 (Rattus norvegicus, UniProt O88943); assay: retigabine-insensitive KCNQ2 potentiators, concentration-response, dose response, cell-based, retigabine-insensitive compounds (AID 2654); assay type: functional
[4] = molecular target: Voltage-gated N-type calcium channel alpha-1B subunit/Amyloid beta A4 precursor protein-binding family A member 1 (Homo sapiens, UniProt Q00975+Q02410); assay: disruptors of Mint-PDZ/N-type channel peptide interaction – biochemical, HTRF, set 2, SAR follow-up (AID 434980); assay type: functional
[5] = molecular target: Eukaryotic translation initiation factor 4H (Homo sapiens, UniProt Q15056); assay: eIF4H inhibition in translation initiation, SAR follow-up (AID 435011); assay type: functional
[6] = molecular target: Polyadenylate-binding protein 1 (Homo sapiens, UniProt P11940); assay: PABP inhibition in translation initiation, SAR follow-up (AID 435018); assay type: functional
[7] = molecular target: T1, Heat shock factor protein 1; assay: inhibition of MG132-induced HSE-luciferase signal, confirmation, cell-based, NIH3T3, luminescence, dose retest (AID 2382); assay type: functional;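 note: NIH3T3 fibroblasts with HSF1-driven luciferase reporter stressed by proteasome inhibitor MG132; luminescence from HSF1-driven luciferase expression after 8 hours of MG132 stress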
[8] = molecular target: Luciferin 4-monooxygenase (Photinus pyralis, UniProt P08659); assay: firefly luciferase enzyme inhibitors, dose response, biochemical, luminescence (AID 1891)
[9] = Luminescence Cell-Based Dose Confirmation HTS to Identify Inhibitors of Platelet Dense Granule Release. [Related pubchem assays: 1663 (Primary HTS), 1678 (Summary of Project)]; assay type: functional
[10] = inhibition of ADP-Glo detection reagents, dose response, artefact control for CDK5 inhibitor project, biochemical, luminescence, cherry-picked samples, set 2 (AID 504546); assay type: functional
[11] = molecular target: Cyclin-dependent kinase 5/CDK5 activator 1 (Homo sapiens, UniProt Q00535); assay: CDK5/p35 kinase inhibitors, dose response, biochemical, cherry-picked samples, set 2 (AID 504545)
[12] = cytotoxicity in HEK-293T cells, dose response, cytotoxicity control for TCR NF-kB inhibitor project, luminescence, T-cell screen hits (AID 489026); assay type: functional, cell-based;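 note: cells exposed to compound about 14 hours before the viability readout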
Paired box protein Pax-8 = Paired box protein Pax-8 (Homo sapiens, UniProt Q06710); assay: inhibitors of PAX8-driven TPO luciferase reporter, dose response, RMG-I cells, cherry-pick (AID 687027); assay type: functional, cell-based;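 note: luciferase reporter driven by Pax8 target thyroperoxidase promoter measured by SteadyGlo luminescence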
[13] = non-specific cell cytotoxicity, dose response, cytotoxicity control for PAX8 inhibitor project, plate reader, dry powder samples (AID 743021); assay type: functional, cell-based
[14] = molecular target: Protein phosphatase methylesterase 1 (Homo sapiens, UniProt Q9Y570); assay: PME-1 inhibitor potency by in-gel ABPP, dose response, selectivity assay for PME-1 inhibitor project, cell lysate, mouse brain cytosol, FP-rhodamine, panel member PME-1 Assay Panel member description: Inhibition of endogenously expressed PME-1 (AID 2366)
[15] = molecular target: G-protein coupled receptor 35 (Homo sapiens, UniProt Q9HC97); assay: SAR analysis of Antagonists of the GPR35 Receptor using an Image-Based Assay - Set 5. [Related pubchem assays (depositor defined):AID2058, AID2079]; assay type: functional
[16] = molecular target: G-protein coupled receptor 55 (Homo sapiens, UniProt Q9Y2T6); assay: SAR Analysis of Selective Antagonists of GPR55 using an Image-Based Assay - Set 3. [Related pubchem assays (depositor defined):AID2058, AID2079]; assay type: functional
[17] = molecular target: Melanin-concentrating hormone receptor 1 (Homo sapiens, UniProt Q99705); assay: Late-stage fluorescence-based counterscreen for antagonists of the G-protein coupled receptor 7 (GPR7): cell-based dose response assay to identify antagonists of the melanin-concentrating hormone receptor 1 (MCHR1). [Related pubchem assays (depositor defined):AID1861, AID1880, AID1952, AID2148, AID2251, AID2257, AID485339]; assay type: functional;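 note: stimulated with 30 nM MCH peptide agonist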
[18] = molecular target: T2, Neuropeptides B/W receptor type 1 (Homo sapiens, UniProt P48145); assay: GPR7 antagonist potency, late-stage follow-up, cell-based, fluorescence, dose response (AID 463251); assay type: functional
T2 sequence (P48145 whole entry): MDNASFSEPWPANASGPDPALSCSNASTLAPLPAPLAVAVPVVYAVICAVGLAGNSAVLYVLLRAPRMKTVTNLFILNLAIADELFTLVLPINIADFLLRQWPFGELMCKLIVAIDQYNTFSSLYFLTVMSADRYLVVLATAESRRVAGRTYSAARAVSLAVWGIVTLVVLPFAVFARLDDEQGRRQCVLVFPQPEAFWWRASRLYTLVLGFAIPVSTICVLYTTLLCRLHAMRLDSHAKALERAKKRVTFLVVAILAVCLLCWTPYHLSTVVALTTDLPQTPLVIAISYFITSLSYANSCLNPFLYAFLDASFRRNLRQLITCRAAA

Wee1-like protein kinase = Wee1-like protein kinase (Homo sapiens, UniProt P30291); assay: G2/M cell cycle arrest in HeLa, late-stage follow-up, mechanism study for Wee1 degradation inhibitor project, FACS, panel member Wee1 Degradation (AID 2088)
[19] = molecular target: G2/mitotic-specific cyclin-B1 (Homo sapiens, UniProt P14635); assay: G2/M cell cycle arrest in HeLa, late-stage follow-up, mechanism study for Wee1 degradation inhibitor project, FACS, panel member Cyclin B Degradation (AID 2088)

Sequence of Luciferin 4-monooxygenase (P08659 whole entry): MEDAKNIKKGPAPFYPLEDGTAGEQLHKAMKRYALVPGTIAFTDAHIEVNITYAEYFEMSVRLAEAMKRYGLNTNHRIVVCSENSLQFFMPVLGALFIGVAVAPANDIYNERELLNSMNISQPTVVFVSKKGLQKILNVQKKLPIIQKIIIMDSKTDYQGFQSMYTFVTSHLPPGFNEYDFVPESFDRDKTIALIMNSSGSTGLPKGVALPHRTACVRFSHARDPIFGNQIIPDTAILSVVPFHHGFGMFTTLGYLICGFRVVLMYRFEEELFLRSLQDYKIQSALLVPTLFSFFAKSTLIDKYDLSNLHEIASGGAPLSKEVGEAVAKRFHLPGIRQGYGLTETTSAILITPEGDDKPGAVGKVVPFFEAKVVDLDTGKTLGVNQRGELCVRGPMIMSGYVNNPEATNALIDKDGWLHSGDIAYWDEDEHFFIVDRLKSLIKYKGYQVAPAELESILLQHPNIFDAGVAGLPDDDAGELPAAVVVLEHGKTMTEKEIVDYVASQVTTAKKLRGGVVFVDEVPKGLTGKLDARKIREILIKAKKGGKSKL
Sequence of Neurotensin receptor type 1 (P30989 whole entry): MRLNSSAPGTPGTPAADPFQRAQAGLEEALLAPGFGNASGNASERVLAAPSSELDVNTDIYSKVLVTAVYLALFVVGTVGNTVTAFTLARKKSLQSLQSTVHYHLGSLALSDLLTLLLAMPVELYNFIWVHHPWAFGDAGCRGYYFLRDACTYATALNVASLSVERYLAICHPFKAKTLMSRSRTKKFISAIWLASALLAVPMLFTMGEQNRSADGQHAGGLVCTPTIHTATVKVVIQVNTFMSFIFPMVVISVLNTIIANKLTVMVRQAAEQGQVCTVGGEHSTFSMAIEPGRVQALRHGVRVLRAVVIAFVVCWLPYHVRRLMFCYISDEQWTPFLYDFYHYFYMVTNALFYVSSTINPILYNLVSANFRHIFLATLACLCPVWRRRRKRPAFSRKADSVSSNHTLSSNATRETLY
Sequence of G-protein coupled receptor 55 (Q9Y2T6 whole entry): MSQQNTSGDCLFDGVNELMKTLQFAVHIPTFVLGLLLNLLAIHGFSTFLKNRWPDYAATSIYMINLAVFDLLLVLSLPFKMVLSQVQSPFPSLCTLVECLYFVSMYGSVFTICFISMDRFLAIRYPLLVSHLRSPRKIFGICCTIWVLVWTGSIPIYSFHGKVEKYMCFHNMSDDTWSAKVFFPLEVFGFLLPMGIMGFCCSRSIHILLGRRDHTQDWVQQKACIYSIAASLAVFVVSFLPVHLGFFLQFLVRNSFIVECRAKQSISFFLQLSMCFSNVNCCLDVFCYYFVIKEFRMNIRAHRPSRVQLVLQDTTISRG
Sequence of Protein phosphatase methylesterase 1 (Q9Y570 whole entry): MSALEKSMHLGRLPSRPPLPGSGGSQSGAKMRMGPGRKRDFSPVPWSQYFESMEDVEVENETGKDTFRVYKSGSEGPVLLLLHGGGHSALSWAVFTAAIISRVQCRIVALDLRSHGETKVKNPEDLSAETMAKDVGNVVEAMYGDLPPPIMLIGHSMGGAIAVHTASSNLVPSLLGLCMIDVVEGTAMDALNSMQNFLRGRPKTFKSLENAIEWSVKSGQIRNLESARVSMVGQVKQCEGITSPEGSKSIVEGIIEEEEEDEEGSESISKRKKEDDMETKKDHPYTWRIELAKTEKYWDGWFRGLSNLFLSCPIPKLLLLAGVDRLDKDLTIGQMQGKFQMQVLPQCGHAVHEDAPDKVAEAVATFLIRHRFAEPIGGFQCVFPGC
Sequence of Potassium voltage-gated channel subfamily KQT member 2 (O88943 whole entry): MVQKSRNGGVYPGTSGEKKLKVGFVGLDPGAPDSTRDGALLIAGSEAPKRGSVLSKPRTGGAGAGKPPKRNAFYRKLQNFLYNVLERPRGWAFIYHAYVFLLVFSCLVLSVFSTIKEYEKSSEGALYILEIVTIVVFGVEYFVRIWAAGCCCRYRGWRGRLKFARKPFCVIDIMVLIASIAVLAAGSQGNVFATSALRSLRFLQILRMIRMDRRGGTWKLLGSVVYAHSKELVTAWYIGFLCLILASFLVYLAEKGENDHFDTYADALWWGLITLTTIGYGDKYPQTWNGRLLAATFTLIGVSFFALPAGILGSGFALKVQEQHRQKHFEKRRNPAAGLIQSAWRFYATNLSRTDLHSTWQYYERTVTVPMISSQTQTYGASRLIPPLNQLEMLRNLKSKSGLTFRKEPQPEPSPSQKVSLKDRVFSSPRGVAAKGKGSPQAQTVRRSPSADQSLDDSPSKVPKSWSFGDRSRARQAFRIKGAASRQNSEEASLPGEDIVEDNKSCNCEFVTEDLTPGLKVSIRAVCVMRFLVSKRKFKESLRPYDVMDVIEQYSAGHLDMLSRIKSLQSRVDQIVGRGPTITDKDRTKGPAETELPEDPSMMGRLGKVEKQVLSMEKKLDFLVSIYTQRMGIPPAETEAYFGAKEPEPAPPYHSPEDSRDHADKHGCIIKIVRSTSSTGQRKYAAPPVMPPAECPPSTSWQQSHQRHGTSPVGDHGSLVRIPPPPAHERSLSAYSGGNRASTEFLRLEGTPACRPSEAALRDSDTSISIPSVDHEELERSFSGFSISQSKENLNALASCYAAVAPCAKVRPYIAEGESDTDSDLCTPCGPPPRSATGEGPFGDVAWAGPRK
Sequence of G-protein coupled receptor 35 (Q9HC97 whole entry): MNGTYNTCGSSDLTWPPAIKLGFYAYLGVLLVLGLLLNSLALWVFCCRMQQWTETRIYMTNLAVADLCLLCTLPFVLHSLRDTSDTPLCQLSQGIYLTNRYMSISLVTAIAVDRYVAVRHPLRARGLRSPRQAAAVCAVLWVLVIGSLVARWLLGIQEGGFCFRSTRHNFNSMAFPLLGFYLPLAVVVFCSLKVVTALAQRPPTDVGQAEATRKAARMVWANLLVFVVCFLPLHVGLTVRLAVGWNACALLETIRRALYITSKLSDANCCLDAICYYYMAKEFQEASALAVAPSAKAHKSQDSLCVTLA
Sequence of Wee1-like protein kinase (P30291 whole entry): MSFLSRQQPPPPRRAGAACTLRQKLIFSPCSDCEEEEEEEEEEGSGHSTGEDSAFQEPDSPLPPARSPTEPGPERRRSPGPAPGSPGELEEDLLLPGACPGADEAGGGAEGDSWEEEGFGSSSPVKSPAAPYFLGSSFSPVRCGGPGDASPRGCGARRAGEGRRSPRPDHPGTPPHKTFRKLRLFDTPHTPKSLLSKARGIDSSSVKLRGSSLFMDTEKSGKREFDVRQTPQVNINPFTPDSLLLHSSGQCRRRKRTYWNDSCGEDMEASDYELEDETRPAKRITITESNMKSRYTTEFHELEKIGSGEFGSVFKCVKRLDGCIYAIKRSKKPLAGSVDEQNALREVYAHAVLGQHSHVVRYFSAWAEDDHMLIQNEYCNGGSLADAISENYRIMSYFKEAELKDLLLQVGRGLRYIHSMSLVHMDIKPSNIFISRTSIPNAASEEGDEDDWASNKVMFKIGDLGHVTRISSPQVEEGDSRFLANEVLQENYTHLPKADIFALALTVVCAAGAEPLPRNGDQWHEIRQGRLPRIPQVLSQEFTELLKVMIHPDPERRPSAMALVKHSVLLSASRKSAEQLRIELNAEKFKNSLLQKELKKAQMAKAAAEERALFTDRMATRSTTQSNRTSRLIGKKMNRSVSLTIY
Sequence of Polyadenylate-binding protein 1 (P11940 whole entry): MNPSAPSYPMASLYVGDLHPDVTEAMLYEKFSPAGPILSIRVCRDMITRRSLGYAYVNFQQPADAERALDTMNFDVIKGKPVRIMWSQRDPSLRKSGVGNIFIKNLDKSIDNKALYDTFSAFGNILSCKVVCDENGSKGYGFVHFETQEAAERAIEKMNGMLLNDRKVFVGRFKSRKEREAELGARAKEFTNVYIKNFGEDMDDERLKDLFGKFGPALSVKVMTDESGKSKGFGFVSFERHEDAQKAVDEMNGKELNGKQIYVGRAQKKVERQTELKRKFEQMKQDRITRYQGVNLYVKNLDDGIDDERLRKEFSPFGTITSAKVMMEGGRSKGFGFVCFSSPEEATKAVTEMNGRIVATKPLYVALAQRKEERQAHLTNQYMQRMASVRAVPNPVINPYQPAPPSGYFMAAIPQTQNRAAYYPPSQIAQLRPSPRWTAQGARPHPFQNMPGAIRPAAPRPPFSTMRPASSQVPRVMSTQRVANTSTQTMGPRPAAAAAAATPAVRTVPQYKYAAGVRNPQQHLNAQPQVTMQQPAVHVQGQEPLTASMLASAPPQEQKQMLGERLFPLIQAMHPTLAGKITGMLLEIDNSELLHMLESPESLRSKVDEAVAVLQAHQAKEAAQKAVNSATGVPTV
Sequence of Paired box protein Pax-8 (Q06710 whole entry): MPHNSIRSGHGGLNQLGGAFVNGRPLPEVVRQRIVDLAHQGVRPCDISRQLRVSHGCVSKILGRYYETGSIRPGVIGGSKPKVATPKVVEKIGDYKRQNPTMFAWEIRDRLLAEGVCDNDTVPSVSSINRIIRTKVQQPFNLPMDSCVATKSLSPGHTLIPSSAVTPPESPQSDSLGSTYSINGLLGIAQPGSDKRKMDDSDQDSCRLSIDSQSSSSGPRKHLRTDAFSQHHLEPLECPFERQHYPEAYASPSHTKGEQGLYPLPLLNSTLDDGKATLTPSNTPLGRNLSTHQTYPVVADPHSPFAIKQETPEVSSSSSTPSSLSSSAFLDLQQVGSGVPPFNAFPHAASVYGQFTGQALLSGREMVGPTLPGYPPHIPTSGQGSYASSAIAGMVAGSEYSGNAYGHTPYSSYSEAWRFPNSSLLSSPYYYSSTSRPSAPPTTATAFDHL

SMILES: O=C(c1cc(-c2ccco2)nc2ccccc12)N1CCC(N2CCCC2)CC1
IC50 [4]: > 56.8 µM (inactive)

SMILES: Cc1nnc(NC(=O)CSc2ccc(-c3ccco3)nn2)s1
IC50 [5]: 6.17 µM (active)
IC50 [6]: 64.1 µM (active)

SMILES: COc1ccc(C(=O)NNC(=O)c2ccccn2)cc1
EC50 [7]: 1.11 µM (active)
EC50 [8]: 0.98 µM (active)
EC50 [9]: 0.429 µM (active)
AC50 [10]: 14.2 µM (active)
AC50 [11]: 8.77 µM (active)
IC50 [12]: > 80 µM (inactive)
AC50 (Paired box protein Pax-8): 7.51 µM (active)
AC50 [13]: 15.7 µM (active)

SMILES: COC(=O)c1cnn(-c2ccc(F)cc2F)c1/C=N/NC(N)=S
EC50 [8]: > 112 µM (not active)
EC50 [9]: > 112 µM (not active)
IC50 [15]: > 32 µM (inactive)
IC50 [16]: > 32 µM (inactive)

Second part, the molecule after the results:

EC50 [1]: 33.9 µM (inactive)
EC50 [2]: 20.7 µM (active)
SMILES: CC1(C)CC(=O)C(=Cc2cn(-c3ccccc3)nc2-c2ccccc2)C(=O)C1

EC50 [3]: 6.32 µM (active)
SMILES: O=C(Nc1cccc(F)c1)Nc1cncc(F)c1

IC50 [14]: > 20 µM (inactive)
SMILES: CC(C)c1cc(C(C)C)c(S(=O)(=O)n2cccc2/C=C(\C#N)S(C)(=O)=O)c(C(C)C)c1

IC50 [17]: 3.1 µM (active)
IC50 [18]: 5.4 µM (active)
SMILES: COc1nn(-c2cccc(C)c2)c(=O)c(Cl)c1Cl

EC50 (Wee1-like protein kinase): > 16.6 µM (active)
EC50 [19]: > 49.7 µM (inactive)
SMILES: Cc1ccc(OCC(=O)Nc2cc(C)nn2-c2nc(C)cc(O)n2)cc1
